From PubChem BioAssay (NCI)
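Dose response: 5 concentrations. Exposure: 48 h. Format: 96-well plates. Endpoint: linear interpolation; highest concentration if not reached. GI50 = concentration required for 50% inhibition of growth. TGI: total growth inhibition.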

Tests used:
Assay in all cases: DTP human tumour cell line panel, 48 h
[1] = test system: NCI-H226 lung
[2] = test system: RXF 393 renal
[3] = test system: HCT-15 colon
[4] = test system: MOLT-4 leukemia
[5] = test system: A549 NSCLC
[6] = test system: HCC-2998 colon
[7] = test system: UACC-257 melanoma
[8] = test system: CAKI-1 renal
[9] = test system: SK-MEL-5 melanoma
[10] = test system: HOP-62 NSCLC
[11] = test system: 786-0 renal
[12] = test system: T-47D breast
[13] = test system: EKVX NSCLC
[14] = test system: BT-549 breast
[15] = test system: SR leukemia
[16] = test system: HCT-116 colon
[17] = test system: MALME-3M melanoma
[18] = test system: OVCAR-5 ovarian
[19] = test system: UACC-62 melanoma
[20] = test system: UO-31 renal
[21] = test system: RPMI-8226 leukemia
[22] = test system: SNB-75 CNS
[23] = test system: OVCAR-8 ovarian
[24] = test system: IGROV1 ovarian
[25] = test system: SK-MEL-28 melanoma
[26] = test system: MDA-MB-231 breast
[27] = test system: OVCAR-4 ovarian
[28] = test system: SN12C renal
[29] = test system: A498 renal
[30] = test system: MCF7 breast
[31] = test system: NCI-H460 lung
[32] = test system: NCI-H23 lung
[33] = test system: ACHN renal
[34] = test system: COLO 205 colon
[35] = test system: K-562 leukemia
[36] = test system: U251 CNS
[37] = test system: TK-10 renal
[38] = test system: SW-620 colon
[39] = test system: OVCAR-3 ovarian
[40] = test system: SF-539 CNS
[41] = test system: SF-268 CNS
[42] = test system: HT29 colon
[43] = test system: LOX IMVI melanoma
[44] = test system: NCI-H522 lung
[45] = test system: DU-145 prostate
[46] = test system: SK-OV-3 ovarian
[47] = test system: CCRF-CEM leukemia
[48] = test system: KM12 colon
[49] = test system: SF-295 CNS
[50] = test system: HL-60(TB) leukemia
[51] = test system: HOP-92 NSCLC
[52] = test system: SNB-19 CNS
[53] = test system: HS 578T breast
[54] = test system: PC-3 prostate
[55] = test system: SK-MEL-2 melanoma
[56] = test system: NCI/ADR-RES ovarian
[57] = test system: MDA-MB-468 breast
[58] = test system: M14 melanoma
[59] = test system: MDA-MB-435

NC(=Nc1ccc(OCCCCCCCCn2ccnn2)cc1)c1ccccc1 was tested, and the GI50 [1] was 0.853 µM, the TGI [1] was 12.1 µM and the GI50 [2] was 0.304 µM. The TGI [2] was 6.29 µM, the GI50 [3] was 0.236 µM and the TGI [3] was 22.9 µM. The GI50 [4] was 0.585 µM, the TGI [4] was over 49.6 µM and the GI50 [5] was 0.458 µM. For the same compound, the TGI [5] was over 46.3 µM, the GI50 [6] was 0.535 µM and the TGI [6] was 11.2 µM. It also gave a GI50 [7] of 0.952 µM, a TGI [7] of 18.5 µM and a GI50 [8] of 0.26 µM. For the same compound, the TGI [8] was 21 µM, the GI50 [9] was 0.157 µM and the TGI [9] was 1.72 µM. It also gave a GI50 [10] of 0.466 µM, a TGI [10] of 15 µM and a GI50 [11] of 0.643 µM. The TGI [11] was over 44.1 µM, the GI50 [12] was 0.449 µM and the TGI [12] was 34.4 µM. The GI50 [13] was 0.286 µM, the TGI [13] was over 40.9 µM and the GI50 [14] was 0.656 µM. The TGI [14] was 12.2 µM, the GI50 [15] was 0.606 µM and the TGI [15] was over 100 µM. It also gave a GI50 [16] of 0.325 µM, a TGI [16] of 12.7 µM and a GI50 [17] of 0.3 µM. For the same compound, the TGI [17] was 15.9 µM, the GI50 [18] was 0.432 µM and the TGI [18] was 17.3 µM. It also gave a GI50 [19] of 0.215 µM, a TGI [19] of 13.1 µM and a GI50 [20] of 0.565 µM. It also gave a TGI [20] of 19.9 µM, a GI50 [21] of 0.404 µM and a TGI [21] of 17.8 µM. It also gave a GI50 [22] of 0.163 µM, a TGI [22] of 29.2 µM and a GI50 [23] of 0.462 µM. The TGI [23] was 3.97 µM, the GI50 [24] was 0.564 µM and the TGI [24] was 16.8 µM. It also gave a GI50 [25] of 0.662 µM, a TGI [25] of 22.9 µM and a GI50 [26] of 0.557 µM. The TGI [26] was 12.7 µM, the GI50 [27] was 4.26 µM and the TGI [27] was over 62.9 µM. For the same compound, the GI50 [28] was 0.495 µM, the TGI [28] was 16.1 µM and the GI50 [29] was 4.75 µM. The TGI [29] was 28.4 µM, the GI50 [30] was 0.124 µM and the TGI [30] was 18.8 µM. The GI50 [31] was 0.208 µM, the TGI [31] was 10.3 µM and the GI50 [32] was 0.458 µM. For the same compound, the TGI [32] was 17.9 µM, the GI50 [33] was 0.714 µM and the TGI [33] was 24.7 µM. For the same compound, the GI50 [34] was 0.238 µM, the TGI [34] was 1.14 µM and the GI50 [35] was 0.144 µM. For the same compound, the TGI [35] was over 56 µM, the GI50 [36] was 0.427 µM and the TGI [36] was 28.8 µM. The GI50 [37] was 3 µM, the TGI [37] was 45 µM and the GI50 [38] was 0.148 µM. The TGI [38] was over 40.8 µM, the GI50 [39] was 0.126 µM and the TGI [39] was 5 µM. The GI50 [40] was 0.239 µM, the TGI [40] was 0.87 µM and the GI50 [41] was 1.17 µM. It also gave a TGI [41] of 25.4 µM, a GI50 [42] of 0.293 µM and a TGI [42] of 0.884 µM. For the same compound, the GI50 [43] was 0.482 µM, the TGI [43] was 13.1 µM and the GI50 [44] was 0.207 µM. For the same compound, the TGI [44] was 1.9 µM, the GI50 [45] was 0.446 µM and the TGI [45] was 24.6 µM. The GI50 [46] was 0.532 µM, the TGI [46] was 32.8 µM and the GI50 [47] was 0.271 µM. The TGI [47] was 19.4 µM, the GI50 [48] was 0.269 µM and the TGI [48] was 19 µM. The GI50 [49] was 0.204 µM, the TGI [49] was 11.5 µM and the GI50 [50] was 0.239 µM. For the same compound, the TGI [50] was 2.9 µM, the GI50 [51] was 1.2 µM and the TGI [51] was 28.8 µM. The GI50 [52] was 0.757 µM, the TGI [52] was over 49.9 µM and the GI50 [53] was 0.271 µM. The TGI [53] was 7.44 µM, the GI50 [54] was 0.337 µM and the TGI [54] was over 44.9 µM.
Clc1ccc(CNc2nc(SCCN3CCOCC3)nc3c2cnn3CC(Cl)c2ccc(Br)cc2)cc1 (stereo unspecified) was tested, and the GI50 [1] was 5.68 µM, the TGI [1] was over 100 µM and the GI50 [2] was 1.72 µM. The TGI [2] was 8.87 µM, the GI50 [3] was 3.03 µM and the TGI [3] was 11 µM. For the same compound, the GI50 [4] was 2.62 µM, the TGI [4] was 8.27 µM and the GI50 [5] was 4.18 µM. The TGI [5] was over 100 µM, the GI50 [6] was 4.4 µM and the TGI [6] was over 100 µM. The GI50 [7] was 29.9 µM, the TGI [7] was over 100 µM and the GI50 [8] was 5.45 µM. The TGI [8] was over 100 µM, the GI50 [55] was 13 µM and the TGI [55] was 63.1 µM. It also gave a GI50 [9] of 7.66 µM, a TGI [9] of 21 µM and a GI50 [10] of 63 µM. For the same compound, the TGI [10] was over 100 µM, the GI50 [11] was 5.62 µM and the TGI [11] was over 100 µM. The GI50 [12] was 3.05 µM, the TGI [12] was over 100 µM and the GI50 [13] was 4.55 µM. It also gave a TGI [13] of over 100 µM, a GI50 [14] of 18.4 µM and a TGI [14] of 94.6 µM. For the same compound, the GI50 [15] was 1.68 µM, the TGI [15] was 5.63 µM and the GI50 [16] was 3.81 µM. It also gave a TGI [16] of over 100 µM, a GI50 [17] of 3.94 µM and a TGI [17] of 28.9 µM. The GI50 [18] was over 100 µM, the TGI [18] was over 100 µM and the GI50 [19] was 11.7 µM. It also gave a TGI [19] of over 100 µM, a GI50 [20] of 3.65 µM and a TGI [20] of over 100 µM. It also gave a GI50 [21] of 3.52 µM, a TGI [21] of over 100 µM and a GI50 [22] of 4.65 µM. It also gave a TGI [22] of over 100 µM, a GI50 [23] of 17.9 µM and a TGI [23] of over 100 µM. The GI50 [56] was 4.14 µM, the TGI [56] was over 100 µM and the GI50 [24] was 65.4 µM. The TGI [24] was over 100 µM, the GI50 [25] was 14 µM and the TGI [25] was over 100 µM. For the same compound, the GI50 [57] was 3.3 µM, the TGI [57] was 18.9 µM and the GI50 [26] was 9.03 µM. It also gave a TGI [26] of over 100 µM, a GI50 [27] of 5.3 µM and a TGI [27] of over 100 µM. The GI50 [28] was 6.14 µM, the TGI [28] was over 100 µM and the GI50 [29] was 54.1 µM. For the same compound, the TGI [29] was over 100 µM, the GI50 [30] was 3.45 µM and the TGI [30] was over 100 µM. For the same compound, the GI50 [31] was 4.57 µM, the TGI [31] was over 100 µM and the GI50 [32] was 7.84 µM. The TGI [32] was over 100 µM, the GI50 [33] was 4.19 µM and the TGI [33] was over 100 µM. For the same compound, the GI50 [34] was 5.71 µM, the TGI [34] was 32 µM and the GI50 [35] was 2.85 µM. It also gave a TGI [35] of over 100 µM, a GI50 [36] of 5.35 µM and a TGI [36] of over 100 µM. For the same compound, the GI50 [37] was 31.9 µM, the TGI [37] was over 100 µM and the GI50 [58] was 6.01 µM. The TGI [58] was over 100 µM, the GI50 [38] was 6.11 µM and the TGI [38] was 91.7 µM. It also gave a GI50 [39] of 9.59 µM, a TGI [39] of over 100 µM and a GI50 [40] of 4.37 µM. It also gave a TGI [40] of over 100 µM, a GI50 [41] of 7.43 µM and a TGI [41] of over 100 µM. It also gave a GI50 [42] of 1.91 µM, a TGI [42] of 4.04 µM and a GI50 [43] of 4.49 µM. The TGI [43] was over 100 µM, the GI50 [44] was 6.17 µM and the TGI [44] was over 100 µM. The GI50 [45] was 46.4 µM, the TGI [45] was over 100 µM and the GI50 [46] was over 100 µM. For the same compound, the TGI [46] was over 100 µM, the GI50 [47] was 3.85 µM and the TGI [47] was over 100 µM. For the same compound, the GI50 [48] was 5.39 µM, the TGI [48] was over 100 µM and the GI50 [49] was 3.91 µM. For the same compound, the TGI [49] was over 100 µM, the GI50 [50] was 2.81 µM and the TGI [50] was 26.8 µM. For the same compound, the GI50 [59] was 6.65 µM, the TGI [59] was over 100 µM and the GI50 [51] was 8.71 µM. It also gave a TGI [51] of over 100 µM, a GI50 [52] of 8.34 µM and a TGI [52] of over 100 µM. It also gave a GI50 [53] of 9.59 µM, a TGI [53] of over 100 µM and a GI50 [54] of 4.3 µM. The TGI [54] was over 100 µM.
